Measured values: PubChem BioAssay AID248 (DTP/NCI, 2004)
Toxic doses and inconclusive results are not listed. Cut-off read from the data, not from the text of the source: active = T/C of 150% or more; inactive = T/C below 125%.

Test system: L1210 leukemia ip in BDF1 mice, survival T/C
Assay: NCI In Vivo Anticancer Drug Screen. Data for tumor model L1210 Leukemia (intraperitoneal) in B6D2F1 (BDF1) mice
Settings: endpoint: mean survival time, higher = longer survival
Procedure, shortened: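 Tumor was transplanted into mice, which were then dosed with test compound or vehicle alone. Survival was recorded for each group, and the treated figure was expressed relative to the control figure.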

[1] = dose: 100.0 mg/kg/injection, schedule: Q01DX009 (ip), vehicle: Klucel (hydroxypropylcellulose) (HPC)
[2] = dose: 100.0 mg/kg/injection, schedule: Q04DX003 (ip), vehicle: Klucel (hydroxypropylcellulose) (HPC)
[3] = dose: 200.0 mg/kg/injection, schedule: Q01DX009 (ip), vehicle: Klucel (hydroxypropylcellulose) (HPC)
[4] = dose: 200.0 mg/kg/injection, schedule: Q04DX003 (ip), vehicle: Klucel (hydroxypropylcellulose) (HPC)
[5] = dose: 400.0 mg/kg/injection, schedule: Q01DX009 (ip), vehicle: Klucel (hydroxypropylcellulose) (HPC)
[6] = dose: 400.0 mg/kg/injection, schedule: Q04DX003 (ip), vehicle: Klucel (hydroxypropylcellulose) (HPC)
[7] = dose: 100.0 mg/kg/injection, schedule: Q04DX002 (ip), vehicle: Klucel (hydroxypropylcellulose) (HPC)
[8] = dose: 200.0 mg/kg/injection, schedule: Q04DX002 (ip), vehicle: Klucel (hydroxypropylcellulose) (HPC)
[9] = dose: 400.0 mg/kg/injection, schedule: Q04DX002 (ip), vehicle: Klucel (hydroxypropylcellulose) (HPC)
[10] = dose: 100.0 mg/kg/injection, schedule: Q01DX009 (ip), vehicle: saline
[11] = dose: 100.0 mg/kg/injection, schedule: Q04DX003 (ip), vehicle: saline
[12] = dose: 200.0 mg/kg/injection, schedule: Q01DX009 (ip), vehicle: saline
[13] = dose: 200.0 mg/kg/injection, schedule: Q04DX003 (ip), vehicle: saline
[14] = dose: 400.0 mg/kg/injection, schedule: Q04DX003 (ip), vehicle: saline
[15] = dose: 100.0 mg/kg/injection, schedule: Q01DX001 (ip), vehicle: saline
[16] = dose: 200.0 mg/kg/injection, schedule: Q01DX001 (ip), vehicle: saline
[17] = dose: 400.0 mg/kg/injection, schedule: Q01DX001 (ip), vehicle: saline

Measured: T/C

CNc1nc[nH]c(=O)c1NC(=O)c1ccccc1
inactive: dose: 45.0 mg/kg/injection, schedule: Q01DX001 (ip), vehicle: Klucel (hydroxypropylcellulose) (HPC) 103 % of control | dose: 90.0 mg/kg/injection, schedule: Q01DX001 (ip), vehicle: Klucel (hydroxypropylcellulose) (HPC) 95 % of control | dose: 180.0 mg/kg/injection, schedule: Q01DX001 (ip), vehicle: Klucel (hydroxypropylcellulose) (HPC) 92 % of control

CCOP(=O)(NCCCOC)OCC
inactive: dose: 0.78 mg/kg/injection, schedule: Q01DX009 (ip), vehicle: acetone 96 % of control | dose: 1.56 mg/kg/injection, schedule: Q01DX009 (ip), vehicle: acetone 100 % of control | dose: 3.12 mg/kg/injection, schedule: Q01DX009 (ip), vehicle: acetone 91 % of control | dose: 3.12 mg/kg/injection, schedule: Q04DX003 (ip), vehicle: saline 93 % of control | dose: 4.6 mg/kg/injection, schedule: Q01DX009 (ip), vehicle: saline 95 % of control | dose: 7.0 mg/kg/injection, schedule: Q01DX009 (ip), vehicle: saline 98 % of control | dose: 10.5 mg/kg/injection, schedule: Q01DX009 (ip), vehicle: saline 95 % of control | dose: 12.5 mg/kg/injection, schedule: Q01DX001 (ip), vehicle: acetone 94 % of control | dose: 15.0 mg/kg/injection, schedule: Q01DX009 (ip), vehicle: acetone 94 % of control | dose: 23.0 mg/kg/injection, schedule: Q01DX009 (ip), vehicle: acetone 94 % of control

Cc1ccc(S(=O)(=O)N/N=C\c2cc(Cl)ccc2O)cc1
inactive: [1] 105 % of control | [2] 100 % of control | [3] 100 % of control | [4] 103 % of control | [5] 103 % of control | [6] 100 % of control

CCOC(=O)C(O)C(C#N)c1ccccc1 (configuration not stated)
inactive: dose: 100.0 mg/kg/injection, schedule: Q01DX009 (ip), vehicle: other 94 % of control | dose: 100.0 mg/kg/injection, schedule: Q04DX003 (ip), vehicle: other 118 % of control | dose: 200.0 mg/kg/injection, schedule: Q01DX009 (ip), vehicle: other 106 % of control | dose: 200.0 mg/kg/injection, schedule: Q04DX003 (ip), vehicle: other 101 % of control | dose: 400.0 mg/kg/injection, schedule: Q01DX009 (ip), vehicle: other 95 % of control | dose: 400.0 mg/kg/injection, schedule: Q04DX003 (ip), vehicle: other 105 % of control

c1cnc(OCCN2CC2)cn1
inactive: dose: 25.0 mg/kg/injection, schedule: Q01DX001 (ip), vehicle: saline 115 % of control | dose: 50.0 mg/kg/injection, schedule: Q01DX001 (ip), vehicle: saline 96 % of control

O=C(c1ccccc1)C(Nc1nc2nc(-c3ccccc3)c(-c3ccccc3)n2[nH]1)c1ccccc1 (configuration not stated)
inactive: dose: 100.0 mg/kg/injection, schedule: Q01DX005 (ip), vehicle: Klucel (hydroxypropylcellulose) (HPC) 98 % of control | [1] 93 % of control | [7] 101 % of control | dose: 200.0 mg/kg/injection, schedule: Q01DX005 (ip), vehicle: Klucel (hydroxypropylcellulose) (HPC) 98 % of control | [3] 93 % of control | [8] 93 % of control | dose: 400.0 mg/kg/injection, schedule: Q01DX005 (ip), vehicle: Klucel (hydroxypropylcellulose) (HPC) 98 % of control | [5] 93 % of control | [9] 96 % of control

CC(=O)Oc1c(C)cc([N+](=O)[O-])cc1[N+](=O)[O-]
inactive: dose: 25.0 mg/kg/injection, schedule: Q04DX003 (ip), vehicle: Klucel (hydroxypropylcellulose) (HPC) 91 % of control | dose: 50.0 mg/kg/injection, schedule: Q04DX003 (ip), vehicle: Klucel (hydroxypropylcellulose) (HPC) 86 % of control

CC(=O)N(C(C)=O)c1ccc(C)cc1
inactive: [10] 109 % of control | [11] 95 % of control | [12] 112 % of control | [13] 108 % of control | [14] 103 % of control

O=C(ONC1CCC(CC2CCCCC2)CC1)c1ccccc1 (configuration not stated)
inactive: dose: 50.0 mg/kg/injection, schedule: Q01DX009 (ip), vehicle: Klucel (hydroxypropylcellulose) (HPC) 102 % of control | [1] 97 % of control | [2] 97 % of control | [4] 89 % of control

O=C(OCc1ccccc1CN1CCCCC1)c1ccc([N+](=O)[O-])cc1Cl
inactive: [7] 98 % of control | [8] 98 % of control | [9] 91 % of control

CCCCCOC(=O)Nc1ccc(S(=O)(=O)N(C)C)cc1
inactive: [15] 100 % of control | [16] 108 % of control | [17] 100 % of control

N#CC1(OC2OC(CO)C(O)C(O)C2O)C=CC(O)C1O (configuration not stated)
inactive: [11] 98 % of control | [13] 105 % of control | [14] 96 % of control

Cc1cccc(OCC2CO2)c1 (configuration not stated)
inactive: dose: 100.0 mg/kg/injection, schedule: Q04DX002 (ip), vehicle: saline 87 % of control | dose: 200.0 mg/kg/injection, schedule: Q04DX002 (ip), vehicle: saline 102 % of control | dose: 400.0 mg/kg/injection, schedule: Q04DX002 (ip), vehicle: saline 105 % of control

CCC(C(=O)c1ccc(Cl)cc1)C(O)(C(F)(F)F)C(F)(F)F (configuration not stated)
inactive: dose: 100.0 mg/kg/injection, schedule: Q01DX001 (ip), vehicle: Klucel (hydroxypropylcellulose) (HPC) 95 % of control | [2] 102 % of control | dose: 200.0 mg/kg/injection, schedule: Q01DX001 (ip), vehicle: Klucel (hydroxypropylcellulose) (HPC) 98 % of control | [4] 98 % of control | dose: 400.0 mg/kg/injection, schedule: Q01DX001 (ip), vehicle: Klucel (hydroxypropylcellulose) (HPC) 112 % of control | [6] 93 % of control

CCSc1nc2c([nH]1)c(=S)n(C)c(=O)n2C
inactive: [15] 96 % of control | [10] 100 % of control | [11] 109 % of control | [16] 112 % of control | [12] 89 % of control | [13] 98 % of control | [17] 95 % of control | dose: 400.0 mg/kg/injection, schedule: Q01DX009 (ip), vehicle: saline 103 % of control | [14] 98 % of control

O=[N+]([O-])c1ccc(CBr)c(I)c1
inactive: dose: 75.0 mg/kg/injection, schedule: Q01DX001 (ip), vehicle: other 98 % of control | dose: 150.0 mg/kg/injection, schedule: Q01DX001 (ip), vehicle: other 102 % of control | dose: 300.0 mg/kg/injection, schedule: Q01DX001 (ip), vehicle: other 94 % of control

OC(c1ccccc1)c1ccccc1 (tested in a mixture with another compound)
inactive: dose: 2.5 mg/kg/injection, schedule: Q01DX009 (ip), vehicle: acetone 107 % of control | dose: 5.0 mg/kg/injection, schedule: Q01DX009 (ip), vehicle: acetone 105 % of control | dose: 10.0 mg/kg/injection, schedule: Q01DX001 (ip), vehicle: saline 93 % of control | dose: 10.0 mg/kg/injection, schedule: Q01DX009 (ip), vehicle: acetone 98 % of control | dose: 20.0 mg/kg/injection, schedule: Q01DX001 (ip), vehicle: saline 88 % of control
